According to the supplement of paper PMC10307832:

Key:
Assay in all cases: relative viability (nuclei count vs DMSO), 5 days (fraction); higher = more cells survive
Doxorubicin + Luminespib = compound: COc1cccc2c1C(=O)c1c(O)c3c(c(O)c1C2=O)C[C@@](O)(C(=O)CO)C[C@@H]3O[C@H]1C[C@H](N)[C@H](O)[C@H](C)O1 [Doxorubicin] + CCNC(=O)c1noc(-c2cc(C(C)C)c(O)cc2O)c1-c1ccc(CN2CCOCC2)cc1 [Luminespib] (partner 0.01 µM)
Summary of the method: (§1)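 Cells from lung cancer lines were seeded into 1536-well plates and, one day later, dosed by pin tool. Treatments were either a single drug or a fixed dose of an anchor drug with five library-drug doses (not always all listed) in √10 steps. After 5 days, nuclei were stained in a one-step fixation (final 0.05% Triton X-100, 1% formaldehyde, 1 ug/ml Hoechst) and counted on 4× images, and relative viability is the treated-to-vehicle nuclei ratio, as the median of duplicate plates.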

BAY61-3606 + OSI-027 = compound: COC1=C(C=C(C=C1)C2=CC3=NC=CN3C(=N2)NC4=C(C=CC=N4)C(=O)N)OC [BAY61-3606] + COc1cccc2cc(-c3nc([C@H]4CC[C@H](C(=O)O)CC4)n4ncnc(N)c34)[nH]c12 [OSI-027] (partner 0.5 µM)
Summary of the method: as §1

Doxorubicin + Lapatinib = compound: COc1cccc2c1C(=O)c1c(O)c3c(c(O)c1C2=O)C[C@@](O)(C(=O)CO)C[C@@H]3O[C@H]1C[C@H](N)[C@H](O)[C@H](C)O1 [Doxorubicin] + CS(=O)(=O)CCNCc1ccc(-c2ccc3ncnc(Nc4ccc(OCc5cccc(F)c5)c(Cl)c4)c3c2)o1 [Lapatinib] (partner 2 µM)
Summary of the method: as §1

Doxorubicin + AZD7762 = compound: COc1cccc2c1C(=O)c1c(O)c3c(c(O)c1C2=O)C[C@@](O)(C(=O)CO)C[C@@H]3O[C@H]1C[C@H](N)[C@H](O)[C@H](C)O1 [Doxorubicin] + NC(=O)Nc1cc(-c2cccc(F)c2)sc1C(=O)N[C@H]1CCCNC1 [AZD7762] (partner 0.2 µM)
Summary of the method: as §1

Cell Line | relative viability (Doxorubicin + Luminespib; first compound 0.001 µM) | relative viability (Doxorubicin + Luminespib; first compound 0.003162 µM) | relative viability (Doxorubicin + Luminespib; first compound 0.01 µM) | relative viability (Doxorubicin + Luminespib; first compound 0.03162 µM) | relative viability (Doxorubicin + Luminespib; first compound 0.1 µM) | relative viability (BAY61-3606 + OSI-027; first compound 0.02 µM) | relative viability (BAY61-3606 + OSI-027; first compound 0.06325 µM) | relative viability (BAY61-3606 + OSI-027; first compound 0.2 µM) | relative viability (BAY61-3606 + OSI-027; first compound 0.6325 µM) | relative viability (BAY61-3606 + OSI-027; first compound 2 µM) | relative viability (Doxorubicin + Lapatinib; first compound 0.001 µM) | relative viability (Doxorubicin + Lapatinib; first compound 0.003162 µM) | relative viability (Doxorubicin + Lapatinib; first compound 0.01 µM) | relative viability (Doxorubicin + Lapatinib; first compound 0.03162 µM) | relative viability (Doxorubicin + Lapatinib; first compound 0.1 µM) | relative viability (Doxorubicin + AZD7762; first compound 0.001 µM) | relative viability (Doxorubicin + AZD7762; first compound 0.003162 µM) | relative viability (Doxorubicin + AZD7762; first compound 0.01 µM) | relative viability (Doxorubicin + AZD7762; first compound 0.03162 µM) | relative viability (Doxorubicin + AZD7762; first compound 0.1 µM)
NCI-H1915 | 0.802 | 0.733 | 0.702 | 0.715 | 0.779 | 0.623 | 0.632 | 0.571 | 0.662 | 0.443 | 0.975 | 0.929 | 0.99 | 0.975 | 0.99 | 0.694 | 0.761 | 0.644 | 0.688 | 0.714
NCI-H1793 | – | 0.228 | 0.289 | 0.159 | 0.263 | 0.259 | 0.276 | – | 0.255 | 0.235 | – | 0.93 | 0.643 | 0.537 | 0.659 | – | 0.432 | 0.574 | 0.298 | 0.358
NCI-H1651 | 0.749 | 0.954 | 0.66 | 0.305 | 0.216 | 0.702 | 0.627 | 0.664 | 0.637 | 0.499 | 0.784 | 0.729 | 0.475 | 0.166 | 0.129 | 0.466 | 0.536 | 0.399 | 0.509 | 0.397
NCI-H2126 | 0.643 | 0.88 | 0.817 | 0.394 | 0.286 | 0.729 | 0.616 | 0.751 | 0.695 | 0.655 | 0.766 | 0.796 | 0.76 | 0.728 | 0.773 | 0.913 | 0.921 | 0.966 | 0.985 | 1
HCC-44 | 0.879 | 0.838 | 0.658 | 0.526 | 0.273 | 0.562 | – | 0.474 | 0.583 | 0.548 | 0.988 | 1.02 | 0.954 | 0.979 | 0.815 | 0.938 | 1.02 | 1.01 | 1.04 | 0.993
RERF-LC-KJ | 1.32 | 1.21 | 0.838 | 0.323 | 0.308 | 0.605 | 0.533 | 0.573 | 0.621 | 0.379 | 0.905 | 0.817 | 0.863 | 0.759 | 0.815 | 1.04 | 1.1 | 0.872 | 0.866 | 0.896
LXF-289 | 0.63 | 0.576 | 0.703 | 0.635 | 0.658 | 0.938 | 0.834 | 0.687 | 0.888 | 0.825 | 0.865 | 0.886 | 0.864 | 0.891 | 0.823 | 1.04 | 1.11 | 1.09 | 1.2 | 1.06
NCI-H838 | 0.273 | 0.35 | 0.279 | 0.255 | 0.172 | 0.456 | 0.36 | 0.429 | 0.411 | 0.298 | 1.02 | 1.06 | 0.834 | 0.375 | 0.195 | 0.921 | 0.934 | 0.913 | 0.919 | 0.749
